From patent US20110288036A1, “Methods for Treating or Preventing Vascular Graft Failure” (priority 2010, published 2011)

Assays:
[1] = system: immortalized human pleural mesothelial cells (ATCC CRL-9444); experiment: IL-6 ELISA in TNF-α-stimulated mesothelial cells; format: cell-based
Protocol: Expression of inflammatory cytokines was induced by applying 1 or 10 ng/ml of TNF-α to cultured mesothelial cells. Briefly, immortalized human pleural mesothelial cells (ATCC CRL-9444) were grown in Medium199 with Earle's BSS, 0.75 mM L-glutamine (Mediatech Inc., Manassas, Va.), 1.25 g/l sodium bicarbonate (Sigma), 3.3 nM epidermal growth factor (EGF) (MBL International, Woburn, Mass.), 40 nM hydrocortisone (Sigma), 870 nM insulin (MBL International), 20 mM HEPES (Sigma), trace elements mixture B (Mediatech Inc., Waltham, Mass.), 10% fetal bovine serum (FBS) (Hyclone), and 1% penicillin/streptomycin (Mediatech Inc., Waltham, Mass.). […] Human mesothelial cells were treated with two different concentrations (1 and 10 ng/mL) of TNF-α for 2, 6, 12, and 24 hours (data not shown). […] Without TNF-α stimulation, mesothelial cells made negligible amounts of IL-6. […] In subsequent experiments designed to determine whether the MMI-0100 peptide ([…]; SEQ ID NO: 1) could reduce TNF-α induced IL-6 expression, both 1 and 10 ng/mL of TNF-α were selected as stimuli. 10 ng/mL of TNF-α is regarded as more physiologically relevant for mesothelial cells.
Prior to cytokine and/or inhibitor treatment, cells were allowed to acclimate in serum-free media consisting of only Medium199 with Earle's BSS, 0.75 mM L-glutamine, 1.25 g/l sodium bicarbonate, 20 mM HEPES, trace elements mixture B (Mediatech Inc., Waltham, Mass.), and 1% penicillin/streptomycin (Mediatech Inc., Waltham, Mass.) for 24 hours. […] Average concentration of IL-6 (pg/ml per 10^5 cells) at each time was determined by cytokine-specific ELISA.

[2] = system: vein graft (inferior vena cava) intimal hyperplasia; experiment: Mouse vein graft model; format: in vivo
Protocol: 12-week-old C57BL/6 wild type mice (Harlan) were used for all experiments, as previously described (Muto, A. et al., J. Exp. Med., 2011, 208(3): 561-575, incorporated herein by reference in its entirety). […] Prior to implantation, the vein was treated ex vivo with 100 μM of MMI-0100 ([…] (SEQ ID NO: 1)) peptide solution, or control PBS solution, for 20 minutes at room temperature.
To implant the vein graft, a midline incision was made in the abdomen of a recipient mouse and the infrarenal abdominal aorta was exposed. The abdominal aorta was temporarily occluded with atraumatic micro-clamps and a segment corresponding to the length of the vein graft was excised. The vein was sutured into the arterial circulation using 10-0 nylon in continuous fashion.
Vein grafts were followed postoperatively using the Vevo770® High-Resolution Imaging System (VisualSonics, Toronto, Canada), with weekly measurements of graft wall thickness. At 28 days after surgery, mice were sacrificed to allow explantation of the vein graft. Tissue was either frozen with RNA stabilization reagent (Qiagen) or explanted for paraffin embedding after circulatory flushing with ice-cold PBS followed by 4% paraformaldehyde perfusion-fixation. Vein graft wall thickness, lumen diameter, and outer wall diameter (elastic lamina) were measured in elastin-stained sections using computer morphometry (ImageJ).
Vein graft samples were fixed as described above and harvested for histology. Specimens were embedded in paraffin and cut in cross section (5 μm). Hematoxylin & Eosin, Masson trichrome, and van Gieson elastin staining were performed for all samples. Cells were cultured on gelatin-coated cover slips and fixed with methanol.
All sections were treated for antigen retrieval using 10 mmol/L citrate buffer (pH 6.0) prior to boiling or proteinase K (20 μg/ml) treatment, at room temperature, for 10-15 minutes. Immunohistochemical detection was performed using DAB as well as NovaRED® substrate (Vector). Sections were counterstained with Mayer's Hematoxylin.
The efficacy of MMI-0100 ([…]; SEQ ID NO: 1) in treating intimal hyperplasia in vivo was examined using a mouse model of vein bypass graft. […] The IVC was soaked in a 100 μM solution of MMI-0100 ([…]; SEQ ID NO: 1) at room temperature for 20 minutes prior to implantation into a host (C57BL/6J) mouse to bypass the infrarenal aorta. Five treated and six untreated veins were transplanted for a total of 11 transplanted animals. Vein graft wall thickness was determined using a […] ultrasound imaging system at each week.
In order to further confirm the inhibitory effects of MMI-0100 ([…]; SEQ ID NO: 1) on intimal hyperplasia development in an […] model, the effect of MMI-0100 ([…]; SEQ ID NO: 1) was investigated in a follow-up study using a mouse model of vein graft adaptation. To this end, vein grafts were treated with PBS or 100 μM of MMI-0100 ([…]; SEQ ID NO: 1) for 20 minutes prior to implantation; the thickness of the vein grafts then was examined weekly with ultrasound.

MKK6 = molecular target: T1, MKK6 (Homo sapiens, UniProt P52564); experiment: MKK6 radiometric kinase assay; format: biochemical; conditions: peptide 100 μM
T1 construct: purchased Millipore (KinaseProfiler service)
T1 sequence (P52564 whole entry, species assumed): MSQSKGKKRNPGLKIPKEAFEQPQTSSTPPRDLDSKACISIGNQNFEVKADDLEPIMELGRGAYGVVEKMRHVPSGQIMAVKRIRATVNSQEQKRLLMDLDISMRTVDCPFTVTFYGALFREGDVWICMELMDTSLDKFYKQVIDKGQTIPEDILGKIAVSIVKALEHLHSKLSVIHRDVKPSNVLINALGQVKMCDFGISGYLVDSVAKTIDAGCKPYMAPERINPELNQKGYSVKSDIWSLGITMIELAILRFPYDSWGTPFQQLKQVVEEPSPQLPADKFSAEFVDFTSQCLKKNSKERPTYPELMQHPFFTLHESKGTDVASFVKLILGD
Source text: A commercial radiometric assay service was used to test the specificity and potency of MMI-0100 ([…]; SEQ ID NO: 1) by measuring its half maximal inhibitory concentrations (IC50). This quantitative assay measures how much MK2 inhibitor (MMI-0100; […] (SEQ ID NO: 1)) is needed to inhibit 50% of a given biological process or component of a process (i.e., an enzyme, cell, or cell receptor). Specifically, in these assays, a positively charged substrate is phosphorylated with a radiolabeled phosphate group from an ATP if the kinase is not inhibited by an inhibitor peptide. The positively charged substrate then is attracted to a negatively charged filter membrane, quantified with a scintillation counter, and compared to a 100% activity control. ATP concentrations within 15 μM of the apparent Km for ATP were chosen since an ATP concentration near the Km may allow for the kinases to have the same relative amount of phosphorylation activity. The individual conditions for each radiometric assay are as follows.
The reaction was initiated by adding the MgATP. After incubation for 40 minutes at room temperature, 5 μl of the incubation mix was used to initiate the p38MAPK radiometric assay described above.
IC50 values for inhibitor peptides were determined using Millipore's IC50 Profiler Express service. The IC50 value was estimated from a 10-point curve of one-half log dilutions. […]

Sequence: YARAAARQARAKALARQLGVAA [MMI-0100]
- IL-6 expression ([1]; TNF-α 1 ng/mL, MMI-0100 1000 or 3000 μM, 6, 12, 24 hours): reduced IL-6 expression to the levels at or below the untreated baseline
- IL-6 expression ([1]; TNF-α 10 ng/mL, 3000 μM, every time point): reduced IL-6 expression to the levels of the untreated baseline
- IL-6 expression ([1]; TNF-α 10 ng/mL, 6, 12, 24 hours): still effective in reducing IL-6 expression triggered by TNF-α
- reduced wall thickness compared to control grafts (histological staining) ([2]; follow-up study, 100 μM 20 minutes ex vivo, 4 weeks): 72%
- F4/80-positive cells infiltrating into vein grafts ([2]; follow-up study, 100 μM 20 minutes ex vivo, 4 weeks, immunohistochemistry): fewer F4/80-positive cells
- vein graft wall thickness ratio ([2]; follow-up study, 100 μM 20 minutes ex vivo, 4 weeks, ultrasound, control 4.7-fold): 2.6 fold
- vein graft wall thickness, weekly ultrasound ([2]; follow-up study, 100 μM 20 minutes ex vivo, weeks 1-4): diminished wall thickness at all postoperative time points
- vessel wall thickness relative to originally harvested IVC ([2]; graft soaked 100 μM 20 minutes, 4 weeks, ultrasound, control almost five times): about 2.5 times
- Percent Activity, MKK6 (MKK6): 50%
